The subject of assay [1] is HAP1 MTAP-deleted cell line. In words: Viability assay, MTAP-deleted cell line. The class given is cell-based. The conditions noted are these: Homo sapiens, read-out: HAP1 MTAP deleted viability. From the text: Table 1 additionally indicates IC50 values in a viability assay for the MTAP-deleted cell line (column 10), indicating the effect of treatment with compound on cell survival.

The target in assay [2] is T1, PRMT5 (Homo sapiens, UniProt O14744).
T1 construct: purchased Viva (custom protein)
Kind of assay: PRMT5 biochemical IC50 assay with MTA as cofactor. The conditions noted are these: PRMT5, MTA as cofactor; read-out: MTA IC50.

Assay [3] concerns the target T1, PRMT5. In words: PRMT5 biochemical IC50 assay with SAM as cofactor. As to conditions: PRMT5, SAM as cofactor; read-out: SAM IC50.
Assay [4] relates to HAP1 MTAP-intact cell line. Kind of assay: SDMA in-cell western assay, HAP1 MTAP-intact. The class given is cell-based. The conditions noted are these: Homo sapiens, HAP1, SDMA in-cell western, HAP1 MTAP-intact; read-out: MTAP HAP1 intact IC50. The procedure, abridged:
(§1)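 IC50 values come from SDMA signal quantified by in-cell western in two HAP1 lines, one with native MTAP levels and one lacking MTAP.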

In assay [5] the test system is HAP1 MTAP-deleted cell line. In words: SDMA in-cell western assay, HAP1 MTAP-deleted. The class given is cell-based. As to conditions: for IC50: Homo sapiens, HAP1, SDMA in-cell western, HAP1 MTAP-deleted; for MTAP intact/deleted ratio: SDMA in-cell western. The procedure, abridged: as §1
The target in assay [6] is T1, PRMT5. Kind of assay: PRMT5 biochemical IC50 assay with no cofactor. As to conditions: PRMT5, no cofactor. The source says:
Table 1 indicates IC50 values (μM) against PRMT5 for exemplary compounds in the presence of SAM as cofactor, with no cofactor, and with MTA as cofactor, respectively (columns 4-6). […] Ki values can be calculated from the IC50 values as described in the Examples section. As detailed in the Examples section, for the assay performed in the presence of SAM, IC50=Ki×1.5 (Ki=IC50/1.5).

Where [7] appears, read: HAP1, viability assay, MTAP-deleted cell line.
[8] abbreviates: read-out: HAP1 MTAP deleted IC50.
Where [9] appears, read: IC50 ratio HAP1 MTAP-intact vs HAP1 MTAP-deleted.
[10] abbreviates: read-out: HAP 1 MTAP deleted IC50.
Setting [11] is: IC50 ratio HAP1 MTAP-intact / HAP1 MTAP-deleted.
Setting [12] is: read-out: No Cofactor/ rel IC50.

T1 sequence (O14744 whole entry): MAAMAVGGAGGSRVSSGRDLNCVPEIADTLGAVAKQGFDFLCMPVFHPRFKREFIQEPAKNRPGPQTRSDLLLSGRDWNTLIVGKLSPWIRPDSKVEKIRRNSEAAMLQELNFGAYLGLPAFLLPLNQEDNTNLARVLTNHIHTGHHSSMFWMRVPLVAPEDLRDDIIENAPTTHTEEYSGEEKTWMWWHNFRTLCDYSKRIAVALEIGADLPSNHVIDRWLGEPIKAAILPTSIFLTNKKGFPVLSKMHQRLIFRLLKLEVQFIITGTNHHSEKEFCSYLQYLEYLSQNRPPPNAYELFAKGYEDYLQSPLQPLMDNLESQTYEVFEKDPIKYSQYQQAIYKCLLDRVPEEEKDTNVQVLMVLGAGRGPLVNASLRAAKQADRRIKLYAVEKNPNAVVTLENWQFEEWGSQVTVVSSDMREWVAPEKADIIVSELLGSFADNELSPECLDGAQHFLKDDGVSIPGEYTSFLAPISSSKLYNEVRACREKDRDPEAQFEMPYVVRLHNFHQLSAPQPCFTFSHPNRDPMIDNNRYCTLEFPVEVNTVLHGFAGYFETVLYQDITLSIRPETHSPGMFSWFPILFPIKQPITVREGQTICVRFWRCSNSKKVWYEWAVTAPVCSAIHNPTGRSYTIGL
T1 sequence (Q9BQA1 whole entry partner): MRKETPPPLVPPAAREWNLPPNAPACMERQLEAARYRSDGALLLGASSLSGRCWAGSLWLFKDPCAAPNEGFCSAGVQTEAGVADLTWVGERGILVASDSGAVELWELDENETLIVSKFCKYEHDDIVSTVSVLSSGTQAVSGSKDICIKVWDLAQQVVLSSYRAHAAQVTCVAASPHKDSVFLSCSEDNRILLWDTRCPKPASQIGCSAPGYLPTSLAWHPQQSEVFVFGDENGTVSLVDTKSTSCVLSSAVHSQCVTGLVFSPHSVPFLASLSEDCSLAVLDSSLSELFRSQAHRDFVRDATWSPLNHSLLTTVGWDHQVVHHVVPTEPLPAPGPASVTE

As to `Cc1cc(NC(=O)C(=O)N2C[C@@H](C)CC[C@@H]2c2ccc3sc([C@H]4CCN(C)C(C)(C)C4)nc3c2)cnc1C` (racemic) [Compound 1113, N-(5,6-dimethyl-3-pyridyl)-2-oxo-2-[(2R,5S)-5-methyl-2-[2-[(4S)-1,2,2-trimethyl-4-piperidyl]-1,3-benzothiazol-5-yl]-1-piperidyl]acetamide], the IC50 in assay [1] (setting [7]) was less than 1 µM; in assay [2], less than 0.05 µM; in assay [3], less than 0.05 µM; in assay [4], 0.1 to 1 µM; in assay [5] (setting [8]), less than 0.1 µM; in assay [6] (read-out: No Cofactor/rel IC50) it was less than 0.05 µM. Also, the MTAP intact/deleted ratio entry in assay [5] (setting [9]) is recorded as “A (an IC50 ratio greater than or equal to 10 fold)”.
Consider `CCc1cc(NC(=O)C(=O)N2C[C@@H](C)CC[C@@H]2c2ccc3sc(C45CC(N(C)C)(C4)C5)nc3c2)cnc1N` [Compound 1404, N-(6-amino-5-ethylpyridin-3-yl)-2-((2R,5S)-2-(2-(3-(dimethylamino)bicyclo[1.1.1]pentan-1-yl)benzo[d]thiazol-5-yl)-5-methylpiperidin-1-yl)-2-oxoacetamide], for which the IC50 in assay [1] (HAP1, viability, HAP1 MTAP-deleted cell line) was less than 1 µM; in assay [2], less than 0.05 µM; in assay [3] it was less than 0.05 µM; in assay [4], less than 0.1 µM; in assay [5] (setting [10]), less than 0.1 µM; in assay [6] (setting [12]) it was less than 0.05 µM. Moreover, in assay [5] (setting [11]), the “MTAP intact/deleted ratio” value is listed as “A (an IC50 ratio greater than or equal to 10 fold)”.
For `C[C@H]1CN(C(=O)C(=O)Nc2cnc(N)c(C3CC3)c2)[C@H](c2ccc3scnc3c2)CC1(F)F` (single isomer, unassigned) [Compound 1207], the IC50 was less than 1 µM in assay [1] (setting [7]); 0.05 to 0.5 µM in assay [2]; 0.05 to 0.5 µM in assay [3]; 0.1 to 1 µM in assay [4]; less than 0.1 µM in assay [5] (setting [8]); 0.05 to 0.5 µM in assay [6] (read-out: No Cofactor/rel IC50). In addition, the MTAP intact/deleted ratio result in assay [5] (setting [9]) is reported as “A (an IC50 ratio greater than or equal to 10 fold)”.
Take `CC(C)[C@@H]1CC[C@@H](C)CN1C(=O)C(=O)Nc1cncc(C(N)=O)c1` (racemic) [Compound 176, 5-[[2-[(2S,5R)-2-isopropyl-5-methyl-1-piperidyl]-2-oxo-acetyl]amino]pyridine-3-carboxamide]: the IC50 in assay [1] (setting [7]) was more than 10 µM; in assay [2], less than 0.05 µM; in assay [3], 0.05 to 0.5 µM; in assay [4], more than 1 µM; in assay [5] (setting [8]), 0.1 to 1 µM; in assay [6] (read-out: No Cofactor/rel IC50), 0.05 to 0.5 µM. The MTAP intact/deleted ratio result in assay [5] (setting [11]) is listed as “A (an IC50 ratio greater than or equal to 10 fold)”.
In the case of `CCc1cc(NC(=O)C(=O)N2C[C@@H](C)CC[C@@H]2c2ccc(F)cc2)cnc1C` [Compound 779, N-(5-ethyl-6-methyl-3-pyridyl)-2-[(2R,5S)-2-(4-fluorophenyl)-5-methyl-1-piperidyl]-2-oxo-acetamide], the IC50 in assay [1] (HAP1, viability assay, HAP1 MTAP-deleted) was 1 to 10 µM; in assay [2], less than 0.05 µM; in assay [3] it was 0.05 to 0.5 µM; in assay [4] it was more than 1 µM; in assay [5] (setting [8]), 0.1 to 1 µM; in assay [6] (read-out: No Cofactor/rel IC50), 0.05 to 0.5 µM. Moreover, in assay [5] (setting [11]), the MTAP intact/deleted ratio entry was “A (an IC50 ratio greater than or equal to 10 fold)”.
`C[C@@H]1CC[C@@H](c2cccs2)N(C(=O)C(=O)Nc2cncc(C(N)=O)c2)C1` (racemic) [Compound 99, 5-(2-(5-methyl-2-(thiophen-2-yl)piperidin-1-yl)-2-oxoacetamido)nicotinamide]: the IC50 in assay [1] (setting [7]) is 1 to 10 µM; in assay [2] it was less than 0.05 µM; in assay [3], 0.05 to 0.5 µM; in assay [4] it was more than 1 µM; in assay [5] (setting [10]), less than 0.1 µM; in assay [6] (setting [12]) it was 0.05 to 0.5 µM. In addition, the “MTAP intact/deleted ratio” value in assay [5] (setting [11]) was “A (an IC50 ratio greater than or equal to 10 fold)”.

Values taken from patent US11999727B2 (Tango Therapeutics, Inc., priority 2020, dated 2024).
